According to patent US11473151B2, “Diagnostic and therapeutic methods for cancer” (Genentech, Inc., priority 2017, dated 2022):
Entries after “also recorded” stand apart in the source; their conditions may differ.

Tested on: metastatic urothelial carcinoma (mUC) patients
Assay: IMvigor210 single-arm phase II study of atezolizumab: response (RECIST v1.1) and overall survival
Type: in vivo, human
Protocol: Samples for this analysis were collected from IMvigor210, which was a single-arm phase II study investigating atezolizumab (1200 mg every 3 weeks (q3w)) in metastatic urothelial carcinoma (mUC) patients (Clinical Trial Identifier: NCT02108652). The primary endpoint of the trial was to achieve a partial response (PR) rate of over 10% (Response Evaluation Criteria In Solid Tumors (RECIST) v1.1). Patients who had failed previous platinum-based chemotherapy or previously untreated patients who were not eligible for platinum-based chemotherapy were eligible. The primary endpoint was met for both previously treated and untreated populations. It was a requirement for all patients to have tumor tissue taken in the 2 years prior to study entry. The tissues were initially used for PD-L1 analysis (SP142 antibody using the Ventana platform). PD-L1 positivity was defined as more that 5% of cells staining in the immune component of the tumor tissue. Additional tissue was used for exploratory analysis. All patients had measurable disease at baseline facilitating response assessment. RECIST v1.1 was used to assess response to therapy. Cross-sectional imaging was performed every 6 weeks. All patients gave […] for this analysis.
For investigation of the clinical activity of PD-L1 blockade with atezolizumab, 429 patients with advanced mUC were enrolled in a phase 2, single arm clinical trial (IMvigor210; NCT02108652). Objective response rate was assessed per RECIST v1.1 and served as a trial endpoint. […] Assessment of the association of PD-L1 expression on tumor-infiltrating immune cells (IC) on baseline tumors with response (objective response rate) was a co-primary endpoint. PD-L1 IC status was defined by the percentage of PD-L1-positive immune cells in the tumor microenvironment (TME): IC0 (<1%), IC1 (≥1% but <5%) and IC2+(≥5%).

Substance: atezolizumab: anti-PD-L1 antibody (Genentech), CAS Registry Number 1422185-06-5, also known as MPDL3280A
- primary endpoint: partial response (PR) rate of over 10% (RECIST v1.1) (1200 mg q3w, previously treated and untreated mUC populations): met
- response rate (Lund genomically unstable (GU) subtype): 47.2%
- overall survival (OS) benefit (high PD-L1 IC scores (IC2/3) relative to IC0/1): Improved OS benefit
- response (high TGF-β 2-gene signature (TGFB1, TGFBR2)): lack of response
- overall survival (OS) benefit (high TMB relative to low TMB, median TMB as cutoff): improved OS benefit
- response rate (other Lund subtypes): 17.6%
- overall survival (OS) (patients with both high TMB and high PD-L1 IC scores): Improved OS
- complete response (CR) rate (tumors with high PD-L1 expression on IC (IC2+) versus other IC levels): significantly higher complete response (CR) rate; also recorded: highest CR rate
